The test system of series [1] is Escherichia coli KCCM 11234. Format: cell-based. The settings on record: two-fold broth microdilution in MHB, 2×10^5 CFU/mL, 37°C, 18 h (24 h in the source), OD 600 nm; triplicate. The text has this: (§1) Every strain used in the study was purchased from the Korean Culture Center of Microorganisms (KCCM, Seoul, Korea) or the American Type Culture Collection (ATCC, Manassas, VA, USA). The following bacterial strains were used in this study: Escherichia coli KCCM 11234 (E. coli), Pseudomonas aeruginosa ATCC 9027 (P. aeruginosa), Bacillus cereus KCCM 21366 (B. cereus), Staphylococcus aureus KCCM 11335 (S. aureus), and methicillin-resistant S. aureus ATCC 33591 (MRSA). Bacterial strains were maintained in tryptic soy broth (TSB, Difco Laboratories, Detroit, MI, USA) and cultured under shaking incubation at 37°C. In addition, the following human cell lines were used in this study: THP-1 monocytes (ATCC TIB-202), primary adipose-derived mesenchymal stem cell (hADMSC; CEFO Co., Seoul, Korea), normal bronchial epithelial cells BEAS-2B (ATCC CRL-9609), and lung carcinoma cells H460 (ATCC HTB-177). THP-1 and H460 cells were cultured in RPMI 1640 medium (Welgene Inc., Gyeongsan, Gyeongsangbuk-do, Korea) supplemented with 10% fetal bovine serum (Gibco), 1% penicillin and streptomycin (Gibco), and sodium pyruvate (Welgene Inc.). hADMSC and BEAS-2B cells were cultured in CEFOgro™ Human MSC Growth Medium (CEFO Co.) and BEGM™ Bronchial Epithelial Cell Growth Medium BulletKit™ (Lonza, Basel, Switzerland), respectively. The cells were maintained under humidified air with 5% CO2 at 37°C.
(§2) Two-fold broth microdilution assays were performed to measure the MIC values of the peptides. In brief, the strains were grown to an exponential phase in MHB at 37°C and then diluted to reach 2×10^5 CFU/mL in fresh media. Peptides were serially diluted in PBS and then added of 50 μL/well to a 96-well plate. An equal volume of bacterial suspensions was added to each well, resulting in final concentrations of peptides ranging from 1 to 32 μM. The wells only with the medium served as blank, while adding the medium to inoculant was used as control. The plates were incubated at 37°C for 18 h, and the bacterial growth was measured at 600 nm using a microplate reader (Molecular Devices, Sunnyvale, CA, USA). […] To perform colony forming assay, different concentrations of peptides were mixed with an equal volume of bacterial suspensions, resulting in 2×10^5 CFU/mL. The samples were spread onto tryptic soy agar (TSA, Difco Laboratories) plates after 3 h incubation and incubated overnight at 37°C. Relative colony formation was measured by counting colonies formed on agar plates, and was compared with the control plate for the relative expression.
(In general: In broth dilution the organism is exposed to a series of concentrations in liquid medium.)

In series [2] the test system is Bacillus cereus KCCM 21366. Format: cell-based. The settings on record: two-fold broth microdilution in MHB, 2×10^5 CFU/mL, 37°C, 18 h (24 h in the source), OD 600 nm; triplicate.
Excerpt: as §1, §2

The test system of series [3] is Pseudomonas aeruginosa ATCC 9027. Format: cell-based. As to conditions: two-fold broth microdilution in MHB, 2×10^5 CFU/mL, 37°C, 18 h (24 h in the source), OD 600 nm; triplicate.
Excerpt: as §1, §2

In series [4] the test system is Staphylococcus aureus KCCM 11335. Type of series: cell-based. The settings on record: two-fold broth microdilution in MHB, 2×10^5 CFU/mL, 37°C, 18 h (24 h in the source), OD 600 nm; triplicate.
Excerpt: as §1, §2

A further series deals with hADMSC cells. The series can be described thus: WST-8 cell viability assay. Type of series: cell-based, human. The settings on record: WST-8, 24 h treatment.
Excerpt: as §1
(§3) THP-1, hADMSC, BEAS-2B, and H460 cells were seeded in 96-well plates at a density of 1×10^5 cells/mL to evaluate the cytotoxic effect of the peptides. Different concentrations of peptide were treated and incubated for 24 h. Quanti-Max WST-8 Cell Viability assay solution (Biomax, Seoul, Korea) was added to each well, and then the plate was incubated for 1 h. The absorbance was read at 450 nm using a microplate reader (Molecular Devices), and the relative cell viability was calculated.
(In general: Tetrazolium assays rely on reduction of a dye to a coloured formazan, in cell work by metabolically active cells.)

A further series has as its system BEAS-2B cells. Kind of series: WST-8 cell viability assay. The settings on record: WST-8, 24 h treatment. Type of series: cell-based, human.
Excerpt: as §1, §3

In another series the test system is THP-1 cells. The series can be described thus: WST-8 cell viability assay. Type of series: cell-based, human. As to conditions: WST-8, 24 h treatment.
Excerpt: as §1, §3

For a further series, the system named is H460 cells. Kind of series: WST-8 cell viability assay. Type of series: cell-based, human. The settings on record: WST-8, 24 h treatment.
Excerpt: as §1, §3

A further series concerns bovine red blood cells. The series can be described thus: Hemolytic activity. Format: cell-based. The settings on record: bovine RBCs 4% (v/v) in PBS, peptide up to 50 μM, 37°C 1 h, relative to 0.1% Triton X-100 (100%), absorbance 450 nm. How it is done:
The hemolytic activity of the peptide was tested using bovine red blood cells (RBCs) purchased from Innovative Research (Novi, MI, USA). RBCs were diluted in PBS to obtain a 4% (v/v) suspension and were aliquoted at 100 μL per microtube. The RBC suspensions were mixed with an equal volume of 2-fold peptides and incubated at 37°C for 1 h. PBS and 0.1% Triton X-100 served as the negative control (0% hemolysis) and positive control (100% hemolysis), respectively. The tubes were centrifuged at 3,000 × g for 10 min at 4°C, and the supernatants were transferred to a 96-well microplate. The absorbance (Ab) was measured at 450 nm using a microplate reader (Molecular Devices). The hemolytic activity of each peptide was calculated by (Abpeptide – AbPBS)/(AbTriton X-100 – AbPBS) × 100.

Series [5] relates to methicillin-resistant S. aureus ATCC 33591 (MRSA). Format: cell-based, Staphylococcus aureus. The settings on record: two-fold broth microdilution in MHB, 2×10^5 CFU/mL, 37°C, 18 h (24 h in the source), OD 600 nm; triplicate.
Excerpt: as §1, with “THP-1 and H460 cells were cultured in RPMI 1640 medium (Welgene Inc., Gyeongsan, Gyeongsangbuk-do, Korea) supplemented with 10% fetal bovine serum (Gibco), 1% penicillin and streptomycin (Gibco), and sodium pyruvate (Welgene Inc.). hADMSC and BEAS-2B cells were cultured in CEFOgro™ Human MSC Growth Medium (CEFO Co.) and BEGM™ Bronchial Epithelial Cell Growth Medium BulletKit™ (Lonza, Basel, Switzerland), respectively. The cells were maintained under humidified air with 5% CO2 at 37°C.” left out
Two-fold broth microdilution assays were performed to measure the MIC values of the peptides. […] The plates were incubated at 37°C for 18 h, and the bacterial growth was measured at 600 nm using a microplate reader (Molecular Devices, Sunnyvale, CA, USA). […] Relative colony formation was measured by counting colonies formed on agar plates, and was compared with the control plate for the relative expression.

The nature of series [6]: Serum stability test (SDS-PAGE). Format: in vitro ADME. As to conditions: 25 μg peptide in 20 μL with 10% human serum (also 2%, 5%), 37°C, 12 h (also 1, 4 h); SDS-PAGE 12% gel, Coomassie staining. How it is done: Peptide stability in human serum (HS, Sigma-Aldrich) was tested by sodium dodecyl sulfate-polyacrylamide gel electrophoresis (SDS-PAGE) ([25]). 25 μg of peptides were incubated with 2%, 5%, and 10% of HS in a total volume of 20μL. The samples, peptide control, HS controls were incubated at 37°C for 1, 4, 12 h and were mixed with 5 × protein sample buffer. The samples were loaded in 12% SDS gel along with Prosi prestained protein marker (GenDEPOT, Katy, TX, USA). After separation, gels were stained with Coomassie Brilliant Blue R-250 staining solution (Bio-Rad, Hercules, CA, USA). Gels were destained and imaged by ChemiDoc™ Imaging Systems (Bio-Rad).

Ends that are not written are not given here.

FKGLAKLLKIGLKALAKVIQ [Ak-N’]: in series [1], the “MIC E. coli” value worked out at 2 µM. The “MIC B. cereus” value in series [2] was 4 µM. Besides, the “MIC P. aeruginosa” value in [3] was 2 µM. For the same sequence, the “MIC S. aureus” value in [4] came out at 0.2 µM. In the series on hADMSC cells, the “Concentration from which a significant cytotoxic effect was seen, hADMSC (primary cell line)” value stood at 2000 nM. Further, the “Concentration from which a significant cytotoxic effect was seen, BEAS-2B (normal cell line)” value with BEAS-2B cells was 2000 nM. For the same sequence, the “Concentration from which a significant cytotoxic effect was seen, THP-1” value with THP-1 cells turned out to be 5000 nM. For the same sequence, in the series on H460 cells, the “Concentration from which cell viability was significantly affected, H460” value was 500 nM. The Hemolysis entry with bovine red blood cells is recorded as “over 50%”. Moreover, the “MIC MRSA” value in series [5] stood at 2 µM. Further, the “Stability in human serum” value in series [6] is “exhibited stability”.
With NKGLAKLLKIGLKALESVIQ [Ak-N’m], the “MIC E. coli” value in series [1] was 2 µM. Further, the “MIC B. cereus” value in [2] amounted to 32 µM. For the same sequence, in series [3], the “MIC P. aeruginosa” value amounted to 8 µM. Besides, the “MIC S. aureus” value in [4] was 8 µM. Moreover, the “Concentration up to which cell viability was not affected, hADMSC” value with hADMSC cells was found to be 2000 nM. Also, in the series with BEAS-2B cells, the “Concentration up to which cell viability was not affected, BEAS-2B” value is 2000 nM. Besides, the “Concentration up to which cell viability was not affected, THP-1” value in the series with THP-1 cells amounted to 10000 nM. The “Concentration up to which cell viability was not affected, H460” value with H460 cells stood at 2000 nM. Moreover, the Hemolysis result in the series on bovine red blood cells is recorded as “below 5%”. For the same sequence, the “MIC MRSA” value in [5] is 32 µM. Also, the “Stability in human serum” value in [6] is reported as “exhibited stability”.

For the origin of these results see PMC9010562, “Designing a Novel Functional Peptide With Dual Antimicrobial and Anti-inflammatory Activities via in Silico Methods” (Frontiers in Immunology, 2022).
